Data: ChEMBL document CHEMBL4622856, “Essential Medicinal Chemistry of Essential Medicines” (J Med Chem, 2020)

Assay: Lipophilicity, log P of the compound
Type: physicochemical
Conditions: octanol/water

| Compound | logP |
| --- | --- |
| CC1(C)C(C=C(Cl)Cl)C1C(=O)OCc1cccc(Oc2ccccc2)c1 (stereo unspecified) [PERMETHRIN] | > 5 |
| Nc1nc2c(ncn2COCCO)c(=O)[nH]1 [ACYCLOVIR] | 1 to 4 |
| NC(N)=O [UREA] | 1 to 4 |
| O=c1[nH]cc(F)c(=O)[nH]1 [FLUOROURACIL] | 1 to 4 |
| CN(C/C=C/C#CC(C)(C)C)Cc1cccc2ccccc12 [TERBINAFINE] | > 5 |
| Clc1ccc(COC(Cn2ccnc2)c2ccc(Cl)cc2Cl)c(Cl)c1 (stereo unspecified) [MICONAZOLE] | > 5 |
